Assay results published in patent publication US6284785A, “1-arenesulfonyl-2-aryl-pyrrolidine and pyridine derivatives” (Hoffmann- La Roche Inc., priority 1999, dated 2001).

Target: T1, rat mGlu 1a receptor (Rattus norvegicus, UniProt P23385)
T1 construct: expressed in transfected cells; host or cells: EBNA cells (transient transfection)
Assay: [Ca2+]i measurements (FLIPR, Fluo-3 AM) on mGlu 1a transfected EBNA cells; agonist or antagonist (against 10 μM glutamate)
Format: cell-based
Details: for Remarks (agonist / antagonist): table of substituents of the Examples, column Remarks
Experimental: cDNA encoding rat mGlu 1a receptor obtained from Prof. Nakanishi (Kyoto, Japan) was transiently tranfected into EBNA cells using a procedure described by Schlaeger et. al, New Dev. New Appl. Anim Cell Techn., Proc. ESACT Meet., 15th (1998), 105-112 and 117-120. [Ca^2+ ]i measurements were performed on mGlu 1a transfected EBNA cells after incubation of the cells with Fluo-3 AM (0.5 μM final concentration) for 1hour at 37° C. followed by 4 washes with assay buffer (DMEM supplemented with Hank's salt and 20 mM HEPES. [Ca^2+ ]i measurements were done using a fluorometric imaging plate reader (FLIPR, Molecular Devices Corporation, La Jolla, Calif. USA). When compounds were evaluated as antagonists they were tested against 10 μM glutamate as agonist.
The inhibition (antagonists) or activation (agonists) curves were fitted with a four parameter logistic equation giving EC50, IC50, and Hill coefficient using the iterative non linear curve fitting software Origin (Microcal Software Inc., Northampton, Mass., USA).

T1 sequence (P23385 19-1199): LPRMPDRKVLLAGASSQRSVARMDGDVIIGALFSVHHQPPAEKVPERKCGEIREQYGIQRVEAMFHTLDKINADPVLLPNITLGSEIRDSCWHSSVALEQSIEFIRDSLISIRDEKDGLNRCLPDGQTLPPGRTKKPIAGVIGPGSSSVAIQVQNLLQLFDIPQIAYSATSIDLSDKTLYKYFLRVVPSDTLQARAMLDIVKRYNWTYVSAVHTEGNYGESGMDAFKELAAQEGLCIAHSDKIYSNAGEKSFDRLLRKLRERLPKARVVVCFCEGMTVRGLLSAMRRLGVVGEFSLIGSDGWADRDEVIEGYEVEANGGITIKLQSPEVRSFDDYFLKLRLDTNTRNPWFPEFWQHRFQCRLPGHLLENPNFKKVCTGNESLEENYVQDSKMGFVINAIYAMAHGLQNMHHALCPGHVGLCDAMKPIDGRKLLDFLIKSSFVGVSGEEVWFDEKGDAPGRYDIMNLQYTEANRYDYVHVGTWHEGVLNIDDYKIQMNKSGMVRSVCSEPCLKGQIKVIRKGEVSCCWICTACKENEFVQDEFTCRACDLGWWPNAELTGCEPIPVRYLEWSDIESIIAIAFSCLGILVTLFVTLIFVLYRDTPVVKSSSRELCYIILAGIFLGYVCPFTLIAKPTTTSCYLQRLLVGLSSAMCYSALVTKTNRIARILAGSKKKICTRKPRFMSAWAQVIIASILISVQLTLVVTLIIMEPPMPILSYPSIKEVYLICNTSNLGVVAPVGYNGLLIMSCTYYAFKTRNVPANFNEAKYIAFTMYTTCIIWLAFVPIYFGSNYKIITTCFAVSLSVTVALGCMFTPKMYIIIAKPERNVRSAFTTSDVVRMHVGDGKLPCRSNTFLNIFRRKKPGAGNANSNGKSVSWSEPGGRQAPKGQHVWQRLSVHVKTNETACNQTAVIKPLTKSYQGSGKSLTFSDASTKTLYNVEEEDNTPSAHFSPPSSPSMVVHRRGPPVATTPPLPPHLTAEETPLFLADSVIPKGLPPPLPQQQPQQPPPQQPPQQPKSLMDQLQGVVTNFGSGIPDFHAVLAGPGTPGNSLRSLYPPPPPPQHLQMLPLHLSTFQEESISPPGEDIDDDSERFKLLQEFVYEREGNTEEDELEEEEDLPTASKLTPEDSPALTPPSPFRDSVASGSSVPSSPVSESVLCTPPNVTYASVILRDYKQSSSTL

Row | SMILES | agonistic / antagonistic activity to the mGlu receptor | Remarks (agonist / antagonist)
1 | Cc1ccc(C2CCCN2S(=O)(=O)c2ccc(C)cc2)cc1 (racemic) [Example 19, (RS)-1-(Toluene-4-sulfonyl)-2-p-tolyl-pyrrolidine] | agonistic activty | Agonist
2 | Cc1ccc(S(=O)(=O)N2CCCC2c2cccs2)cc1 (racemic) [Example 37, (RS)-2-Thien-2-yl-1-(toluene-4-sulfonyl)-pyrrolidine] |  | Antagonist
3 | O=S(=O)(c1ccc2ccccc2c1)N1CCCC1c1ccc(F)cc1 (racemic) [Example 66, (RS)-2-(4-Fluoro-phenyl)-1-(naphthalene-2-sulfonyl)-pyrrolidine] |  | Antagonist
4 | CC1CCN(S(=O)(=O)c2ccc(Cl)cc2)C1c1ccc(F)cc1 (racemic) [Example 89, Mixture of (2RS,3RS)- and (2RS,3 SR)-1-(4-chloro-benzenesulfonyl)-2-(4-fluoro-phenyl)-3-methyl-pyrrolidine] | agonistic activty | agonist
5 | COCc1ccc(S(=O)(=O)N2CCCC2c2ccc(F)cc2)cc1 (racemic) [Example 85, (RS)-2-(4-Fluoro-phenyl)-1-(4-methoxymethyl-benzenesulfonyl)-pyrrolidine] | agonistic activty | Agonist
6 | O=S(=O)(c1ccc(F)cc1)N1CCCC1c1ccco1 (racemic) [Example 70, (RS)-1-(4-Fluoro-benzenesulfonyl)-2-furan-2-yl-pyrrolidine] |  | Antagonist
7 | CN(C)c1ccc(C2CCCN2S(=O)(=O)c2ccc(F)cc2)cc1 (racemic) [Example 73, (RS)-2-(4-N,N-Dimethylamino-phenyl)-1-(4-fluoro-benzenesulfonyl)-pyrrolidine] |  | Antagonist
8 | Cc1ccc(C2CCCN2S(=O)(=O)c2ccc(Cl)cc2)cc1 (racemic) [Example 20, (RS)-1-(4-Chloro-benzenesulfonyl)-2-p-tolyl-pyrrolidine] |  | Antagonist
9 | Cc1ccc(S(=O)(=O)N2CCCC2c2ccc(C(F)(F)F)cc2)cc1 (racemic) [Example 48, (RS)-1-(Toluene-4-sulfonyl)-2-(4-trifluoromethyl-phenyl)-pyrrolidine] | agonistic activty | Agonist
10 | O=S(=O)(c1ccccc1)N1CCCC1c1ccc(Cl)cc1 (racemic) [Example 13, (RS)-1-Benzenesulfonyl-2-(4-chloro-phenyl)-pyrrolidine] |  | Agonist
11 | Cc1ccc(S(=O)(=O)N2CCCC2c2ccc(F)c(F)c2)cc1 (racemic) [Example 38, (RS)-2-(3,4-Difluoro-phenyl)-1-(toluene-4-sulfonyl)-pyrrolidine] | agonistic activty | Agonist
12 | Cc1ccc(S(=O)(=O)N2CCCC2c2cccc(C)c2)cc1 (racemic) [Example 28, (RS)-1-(Toluene-4-sulfonyl)-2-m-tolyl-pyrrolidine] |  | Agonist
13 | O=S(=O)(c1ccccc1F)N1CCCC1c1ccc(F)cc1 (racemic) [Example 63, (RS)-1-(2-Fluoro-benzenesulfonyl)-2-(4-fluoro-phenyl)-pyrrolidine] |  | Antagonist
14 | O=S(=O)(c1ccc(Cl)cc1)N1CCCC1c1ccc(F)c(F)c1 (racemic) [Example 39, (RS)-1-(4-Chloro-benzenesulfonyl)-2-(3,4-difluoro-phenyl)-pyrrolidine] | agonistic activty | Agonist
15 | Cc1ccc(S(=O)(=O)N2CCCC2c2cccc(F)c2)cc1 (racemic) [Example 1, (RS)-2-(3-Fluoro-phenyl)-1-(toluene-4-sulfonyl)-pyrrolidine] |  | Agonist
16 | O=S(=O)(c1cccc(F)c1)N1CCCC1c1ccc(F)cc1 (racemic) [Example 64, (RS)-1-(3-Fluoro-benzenesulfonyl)-2-(4-fluoro-phenyl)-pyrrolidine] |  | Antagonist
17 | O=S(=O)(c1ccc(C(F)(F)F)cc1)N1CCCC1c1ccc(F)cc1 (racemic) [Example 60, (RS)-2-(4-Fluoro-phenyl)-1-(4-trifluoromethyl-benzenesulfonyl)-pyrrolidine] | agonistic activty | Agonist
18 | Cc1ccc(S(=O)(=O)N2CCCC2c2cccc(Cl)c2)cc1 (racemic) [Example 31, (RS)-2-(3-Chloro-phenyl)-1-(toluene-4-sulfonyl)-pyrrolidine] | agonistic activty | Agonist
19 | Cc1cccc(C2CCCN2S(=O)(=O)c2ccc(Cl)cc2)c1 (racemic) [Example 29, (RS)-1-(4-Chloro-benzenesulfonyl)-2-m-tolyl-pyrrolidine] | agonistic activty | Agonist
20 | Cc1ccc(S(=O)(=O)N2CCCC2c2ccc(N(C)C)c(F)c2)cc1 (racemic) [Example 41, (RS)-1-(p-Toluenesulfonyl)-2-(4-dimethylamino-3-fluoro-phenyl)-pyrrolidine] |  | Antagonist
21 | O=S(=O)(c1ccc(Cl)cc1)N1CCC[C@H]1c1ccc(F)cc1 [Example 77, (S)-1-(4-Chloro-benzenesulfonyl)-2-(4-fluoro-phenyl)-pyrrolidine] | agonistic activty | Agonist
22 | CCc1ccc(C2CCCN2S(=O)(=O)c2ccc(C)cc2)cc1 (racemic) [Example 78, (RS)-2-(4-Ethyl-phenyl)-1-(toluene-4-sulfonyl)-pyrrolidine] | agonistic activty | Agonist
23 | O=S(=O)(c1ccc(F)cc1)N1CCCC1c1ccc(F)cc1 (racemic) [Example 16, (RS)-1-(4-Fluoro-benzenesulfonyl)-2-(4-fluoro-phenyl)-pyrrolidine] | agonistic activty | Agonist
24 | CN(C)c1ccc(C2CCCN2S(=O)(=O)c2ccc(Cl)cc2)cc1Cl (racemic) [Example 45, (RS)-1-(4-Chloro-benzenesulfonyl)-2-(4-dimethylamino-3-chloro-phenyl)-pyrrolidine] |  | Antagonist
25 | O=S(=O)(c1ccc(Br)cc1)N1CCCC1c1ccc(F)cc1 (racemic) [Example 26, (RS)-1-(4-Bromo-benzenesulfonyl)-2-(4-fluoro-phenyl)-pyrrolidine] | agonistic activty | Agonist
